Legend:
normal rats = experiment: Uroflowmetry (urine flow rate measurement) in normal rats; type: in vivo, rat; conditions: normal male rats, subcutaneous, measured for 12 hours; acotiamide 30, 100, 200 mg/kg, distigmine 0.1 mg/kg (FIG. 5)
Experimental: Changes in urine flow rate when distigmine (0.1 mg/kg), acotiamide (30, 100, and 200 mg/kg) or vehicle was subcutaneously administered (5 mL/kg) to male rats (strain: Crl:CD (SD), 8 weeks old, Jackson Laboratory Japan, Inc.) were measured for 12 hours. Changes in urine flow rate were recorded using PowerLab (ADInstruments) by placing a digital balance under the voiding measurement cage to cumulatively collect excreted urine in a container on the balance and measure the change in weight.

bladder of normal rats = experiment: Cystometry (detrusor muscle contraction pressure measurement) in normal rats; type: in vivo; conditions: normal male rats, subcutaneous; for bladder contraction pressure during voiding / maximum contraction pressure during voiding: 0 to 90 minutes after administration, acotiamide 30 to 200 mg/kg; for bladder contraction pressure during voiding: distigmine 0.01 to 0.1 mg/kg (FIG. 3); for maximum contraction pressure during voiding: distigmine 0.01 to 0.1 mg/kg (FIG. 4); for bladder compliance: 0 to 90 minutes, acotiamide up to 200 mg/kg, distigmine 0.01 to 0.1 mg/kg (FIG. 6); for tolerability in the cystometry test at the highest dose: highest dose acotiamide 200 mg/kg, distigmine 0.3 mg/kg
Experimental: A polyethylene catheter (PE50) for cystometry was inserted into and indwellingly placed in the bladder of male rats (strain: Crl:CD (SD), 8 weeks old, Jackson Laboratory Japan, Inc.). The catheter indwelling in the bladder was connected to a pressure transducer (Nihon Kohden Corporation) to measure the intravesical pressure. Physiological saline was injected into the bladder using an infusion pump, and changes in intravesical pressure were recorded on a polygraph system (RMT-1000, Nihon Kohden Corporation) and an analysis system (Lab Chart Pro, ADInstruments). Changes in detrusor muscle contraction pressure when distigmine (0.01 to 0.3 mg/kg), acotiamide (3 to 200 mg/kg), or vehicle was subcutaneously administered (5 ml/kg) were measured for 90 minutes.

[1] = tested on: pelvic nerve crush (PNC) rats; experiment: Cystometry in underactive bladder model (pelvic nerve crush, PNC) rats; type: in vivo, rat; conditions: PNC female rats, subcutaneous; for detrusor muscle contraction pressure: awake, measured for 60 minutes, acotiamide 30 to 200 mg/kg, distigmine 0.1 mg/kg (FIG. 12); for drug tolerability at the highest dose: highest dose acotiamide 200 mg/kg, distigmine 0.3 mg/kg
Experimental: Under isoflurane anesthesia, female rats (strain: Crl:CD (SD), 8 weeks old, Jackson Laboratory Japan, Inc.) were subjected to pelvic nerve injury surgery to prepare pelvic nerve crush (PNC) rats. Cystometry was performed while awake, 2 to 4 weeks after surgery. A polyethylene catheter (PE50) for cystometry was inserted into the bladder and indwellingly placed. The catheter indwelling in the bladder was connected to a pressure transducer (Nihon Kohden Corporation) to measure the intravesical pressure. Physiological saline was injected into the bladder using an infusion pump, and changes in intravesical pressure were recorded in a polygraph system (RMT-1000, Nihon Kohden Corporation) (RMT-1000 MG, Miyuki Giken Co., Ltd.) and an analysis system (Lab Chart Pro, ADInstruments).
Changes in detrusor muscle contraction pressure when distigmine (0.01 to 0.3 mg/kg), acotiamide (3 to 200 mg/kg), or vehicle was subcutaneously administered (5 mL/kg) to PNC rats were measured for 60 minutes.

urethra of normal rats = experiment: Measurement of LPP (urethral pressure) in normal rats; type: in vivo, rat; conditions: spinal cord transected female rats, subcutaneous; acotiamide 30 to 300 mg/kg, distigmine 0.1 mg/kg, bethanechol 3 mg/kg (FIG. 7)
Experimental: Using female rats (strain: Crl:CD (SD), 9 weeks old, Jackson Laboratory Japan, Inc.), under isoflurane anesthesia, the spinal cord was transected at the Th8 vertebra, and after ligating and excising the ureters, a catheter (Becton Dickinson: PE-90, PE-50) was inserted and fixed at the bladder dome to prepare the measurement animal. Physiological saline was injected from the catheter, and the maximum intravesical pressure (leak point pressure (LPP)) when leaking from the external urethral opening was recorded by PowerLab (ADInstruments). Changes in leak point pressure when distigmine (0.1 mg/kg), bethanechol (3 mg/kg), acotiamide (30 to 300 mg/kg), or a vehicle was subcutaneously administered (5 mL/kg) were measured.

[2] = tested on: partial BOO rats exhibiting overactive bladder; experiment: Cystometry in partial bladder outlet obstruction (BOO) rats: voiding interval and frequency of NVC; type: in vivo, rat; conditions: for NVC frequency compared with the β3 agonist single administration group: co-administered with mirabegron 3 mg/kg i.v., distigmine 0.1 mg/kg or acotiamide 200 mg/kg s.c. (FIG. 15); for voiding interval, effect of a single agent: up to 2 hours, distigmine 0.1 mg/kg s.c., acotiamide 100 and 200 mg/kg s.c., mirabegron 3 mg/kg i.v. (FIG. 14)
Experimental: Under isoflurane anesthesia, female rats (strain: Crl:CD (SD), 6 weeks old, Jackson Laboratory Japan, Inc.) were subjected to bladder outlet obstruction surgery to prepare partial bladder outlet obstruction (BOO) rats. The sham-operated group was operated similarly except for the partial BOO. Six weeks after surgery, cystometry was performed while awake. A polyethylene catheter (Becton Dickinson: PE50) for cystometry was inserted into and indwellingly placed in the bladder. The catheter indwelling in the bladder was connected to a pressure transducer (Nihon Kohden Corporation) to measure the intravesical pressure. Physiological saline was injected into the bladder using a syringe pump and changes in intravesical pressure were recorded in PowerLab (ADInstruments).
Distigmine (0.1 mg/kg), acotiamide (100 and 200 mg/kg) or vehicle was subcutaneously administered (5 ml/kg), or a β3-adrenergic receptor agonist (β3 agonist mirabegron, a therapeutic agent for overactive bladder) (3 mg/kg) was intravenously administered (1 mL/kg), and the voiding interval was measured for up to 2 hours.
The β3 agonist mirabegron (3 mg/kg, intravenous administration [1 mL/kg]) was co-administered with distigmine (0.1 mg/kg) or acotiamide (200 mg/kg) by subcutaneous administration (5 mL/kg), and the frequency of NVC was measured.

[3] = tested on: bladder M3 receptor (Chrm3); experiment: Bladder M3 receptor expression (real-time PCR Chrm3, Western blotting CHRM3) after repeated administration; type: in vivo, rat; conditions: subcutaneous twice daily for two weeks; for Relative gene expression of Chrm3 (Mean ± SE): bladder of normal male rats, real-time PCR, acotiamide 200 mg/kg/day, distigmine 0.2 mg/kg/day; for expression level of the bladder M3 receptor after repeated administration: normal male rats, acotiamide 100 mg/kg, distigmine 0.1 mg/kg per dose (Table 1, FIG. 13)
Experimental: Distigmine (0.1 mg/kg), acotiamide (100 mg/kg), or vehicle was subcutaneously administered twice daily for two weeks (5 mL/kg per dose) to normal rats (male, strain: Crl:CD (SD), 8 weeks old, Jackson Laboratory Japan, Inc.), and the bladder was collected. The M3 receptor expression level in the collected bladder was examined by gene quantitative analysis by real-time PCR (Chrm3) and protein expression analysis by Western blotting (CHRM3).

[4] = tested on: female rats under urethane anesthesia; experiment: Test for confirming tolerability: induction of cholinergic crisis; type: in vivo, rat; conditions: up to 120 minutes; for induction of cholinergic crisis (hypersecretion, respiratory abnormalities): urethane anesthesia, subcutaneous, distigmine 0.1-0.4 mg/kg, acotiamide 200 and 300 mg/kg
[5] = tested on: bladder of normal guinea pigs; experiment: Cystometry and urine flow rate measurement in normal guinea pigs; type: in vivo, guinea pig; conditions: male guinea pigs, intravenous, 0 to 30 minutes, acotiamide 0.1 to 10 mg/kg; for bladder contraction pressure during voiding: distigmine 1 mg/kg (FIG. 8); for maximum contraction pressure during voiding: distigmine 1 mg/kg (FIG. 9); for urine flow rate (maximum urine flow rate and average urine flow rate): distigmine 1 mg/kg (FIG. 10, FIG. 11)
Experimental: A polyethylene catheter (Becton Dickinson: PE50) was inserted into and fixed to the bladder of a guinea pig (male, strain: Slc: Hartley, 7 weeks old, Japan SLC, Inc.). A catheter indwellingly placed in the bladder was connected to a pressure transducer to measure intravesical pressure. Physiological saline was injected into the bladder using an infusion pump and intravesical pressure was recorded in PowerLab (ADInstruments). The urine flow rate was recorded in PowerLab (ADInstruments) by placing a digital balance under the cage to cumulatively collect excreted urine in a container on the balance and measure the change in weight. Changes in the detrusor muscle contraction pressure and the urine flow rate when distigmine (1 mg/kg), acotiamide (0.1 to 10 mg/kg), or a vehicle was intravenously administered (1 mL/kg) were measured for 30 minutes.

[6] = tested on: patients with underactive bladder; conditions: in combination with an α1-receptor blocker, cited from earlier work

Structure (SMILES) | urine flow rate (normal rats) | bladder contraction pressure during voiding (bladder of normal rats) | maximum contraction pressure during voiding (bladder of normal rats) | bladder compliance (bladder of normal rats) | tolerability in the cystometry test at the highest dose (bladder of normal rats) | detrusor muscle contraction pressure [1] | drug tolerability at the highest dose [1] | leak point pressure (urethral pressure) (urethra of normal rats) | NVC frequency compared with the β3 agonist single administration group [2] | voiding interval, effect of a single agent [2] | Relative gene expression of Chrm3 (Mean ± SE) [3] | expression level of the bladder M3 receptor after repeated administration [3] | induction of cholinergic crisis (hypersecretion, respiratory abnormalities) [4] | bladder contraction pressure during voiding [5] | maximum contraction pressure during voiding [5] | urine flow rate (maximum urine flow rate and average urine flow rate) [5] | also measured
CN(CCCCCCN(C)C(=O)Oc1ccc[n+](C)c1)C(=O)Oc1ccc[n+](C)c1 [Distigmine] | decreased | increased | increased | significantly reduced | induced cholinergic crisis | increased | cholinergic crisis | did not change | increased | significantly shortened | 79.1 ± 11.8 | reduced | induced | increased | increased | decreased | death (animals) ([4]; 0.2 mg/kg subcutaneous): 1 out of 3; death (animals) ([4]; 0.3 mg/kg subcutaneous): 5 out of 6; death (animals) ([4]; 0.4 mg/kg subcutaneous): 3 out of 3
COc1cc(O)c(C(=O)Nc2nc(C(=O)NCCN(C(C)C)C(C)C)cs2)cc1OC [Acotiamide, N-[2-[bis(1-methylethyl)amino]ethyl]-2-[(2-hydroxy-4,5-dimethoxybenzoyl)amino]thiazole-4-carboxamide] | increasing | increased | increased | did not affect | well tolerated | increased | good tolerability | did not change | similar | had no effect | 107.0 ± 12.9 | did not reduce | did not induce | increased | increased | increasing | action on bladder contraction pressure, 200 mg/kg group compared with 30 and 100 mg/kg groups (bladder of normal rats; 200 mg/kg): extremely strong; action on the detrusor muscle contraction pressure, 200 mg/kg group compared with 30 and 100 mg/kg groups ([1]; 200 mg/kg): extremely strong; decrease in residual urine volume ([6]; 100 mg orally 3 times a day for 2 weeks): a sufficient decrease in residual urine volume was not obtained; mean value of residual urine volume after administration ([6]; 100 mg orally three times a day for two weeks): ≥ 100 mL; death cases ([4]; 200 and 300 mg/kg subcutaneous): no death cases
CC(C[N+](C)(C)C)OC(N)=O (stereo not drawn) [bethanechol] | – | – | – | – | – | – | – | increase | – | – | – | – | – | – | – | – | –
Nc1nc(CC(=O)Nc2ccc(CCNC[C@H](O)c3ccccc3)cc2)cs1 [mirabegron] | – | – | – | – | – | – | – | – | – | had no effect | – | – | – | – | – | – | –
